Data on 20 compounds can be found in patent US10604512B2, “3-(1H-indol-2-yl)-1H-indazoles and therapeutic uses thereof” (Samumed, LLC, priority 2015, dated 2020).

Structures are written as SMILES.

What all share (format): cell-based
For one test, the system named is SW480 colon cancer cells. The test is described as follows: Cell viability assay (CellTiter-Blue) in SW480 colon cancer cells. Conditions: Homo sapiens, 96 h, four days, CellTiter-Blue. The method, boiled down: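 Four-day viability readout in SW480 cells: compound at 0.0045–10 μM (1:3 series), DMSO controls in eight replicates, CellTiter-Blue fluorescence after ~3 h. Values are regression-derived EC50s, or percent inhibition at 10 μM when EC50 exceeds 10 μM.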

In test [1] the test system is Primary human fibroblasts derived from IPF patients (LL29 cells) treated with TGF-β1. Kind of test: Inhibition of the fibrotic process: αSMA staining in TGF-β1-treated primary human fibroblasts from IPF patients (LL29 cells). The settings on record: Fibroblast, 96 h, % αSMA-positive LL29 cells, TGF-β1 20 ng/mL, 4 days. Put shortly: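 LL29 IPF-patient fibroblasts in 1% FBS stimulated with TGF-β1 (20 ng/mL) and compound (10 μM–1.87 nM, 0.1% DMSO) for 4 days at 37 °C. SYTOX-positive cells excluded; % αSMA-positive cells imaged, normalized to TGF-β1/DMSO wells; EC50 by nonlinear regression, else % inhibition at 10 μM.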

For test [2], the system named is Wnt activity (Sp5-Luc reporter, TCF/LEF binding sites) in SW480 colon carcinoma cells. Kind of test: Screening assay for Wnt activity: Sp5-Luc reporter gene assay in stably transduced SW480 colon carcinoma cells. The settings on record: Homo sapiens, overnight incubation, 10-point curve from 10 μM. Put shortly:
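SW480 cells stably transduced with a luciferase reporter driven by an Sp5 promoter of eight TCF/LEF sites were plated at 4,000 cells/well in 1% FBS medium. They were exposed overnight at 37° C to a 10-point 1:3 dilution series from 10 μM (0.1% DMSO). Luminescence was normalized to DMSO for four-parameter EC50, or percent inhibition at 10 μM.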
(In a reporter assay the amount or activity of a reporter protein is the signal.)

The subject of a further test is IL-6. The test is described as follows: Inhibition of IL-6 in LPS-stimulated THP-1 human monocyte cells (HTRF). The settings on record: IL-6 inhibition, LPS-stimulated THP-1 cells, HTRF. Put shortly: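 THP-1 cells serum-reduced (1% FBS, 24 h), then 5000 cells/well preincubated 2 h with compound (10-point 1:3 series from 10 μM, 0.1% DMSO) before 500 ng/mL LPS for 22 h at 37 °C. Secreted IL-6 quantified by HTRF 665/620 ratio; DMSO-normalised duplicates fitted to four-parameter EC50; above 10 μM, % inhibition at 10 μM given.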
On the technique in general: Time-resolved FRET reads energy transfer from a long-lived donor to a nearby acceptor.

Usually EC50 stands for the concentration at which the effect is half-maximal.

For the compound `Fc1cccc(-c2cccc3[nH]c(-c4n[nH]c5ccc(-c6cncc(CN7CCC(F)(F)C7)c6)cc45)cc23)c1` [Compound 26, 5-(5-((3,3-diFluoropyrrolidin-1-yl)methyl)pyridin-3-yl)-3-(4-(3-fluorophenyl)-1H-indol-2-yl)-1H-indazole], the EC50 in the test with SW480 colon cancer cells came to 4090 nM; in test [1], 815 nM; in test [2], 495 nM; in the test with IL-6 it was 1220 nM.

On to `CS(=O)(=O)NCc1cc(F)cc(-c2cccc3[nH]c(-c4n[nH]c5ccc(-c6cncc(OCc7ccccc7)c6)cc45)cc23)c1` [Compound 802, N-(3-(2-(5-(5-(Benzyloxy)pyridin-3-yl)-1H-indazol-3-yl)-1H-indol-4-yl)-5-fluorobenzyl)methanesulfonamide], for which the EC50 worked out at 461 nM in the test with SW480 colon cancer cells, 400 nM in test [1], 189 nM in test [2] and 802 nM with IL-6.

For `CCNCc1cncc(-c2ccc3[nH]nc(-c4cc5c(-c6ccccn6)cccc5[nH]4)c3c2)c1` [Compound 146, N-((5-(3-(4-(Pyridin-2-yl)-1H-indol-2-yl)-1H-indazol-5-yl)pyridin-3-yl)methyl)ethanamine], the EC50 with SW480 colon cancer cells is 1000 nM; in test [1] it was 1410 nM; in test [2], 525 nM; with IL-6, 529 nM.

As for `CN(C)CCNc1cc(F)cc(-c2cccc3[nH]c(-c4n[nH]c5ccc(-c6cncc(NC(=O)C7CC7)c6)cc45)cc23)c1` [Compound 468, N-(5-(3-(4-(3-((2-(Dimethylamino)ethyl)amino)-5-fluorophenyl)-1H-indol-2-yl)-1H-indazol-5-yl)pyridin-3-yl)cyclopropanecarboxamide], the concentration for a half-maximal effect (EC50) came out at 75 nM with SW480 colon cancer cells, 174 nM in test [1], 21 nM in test [2] and 9 nM in the test on IL-6.

For the compound `CN(C)CCNc1cc(F)cc(-c2cccc3[nH]c(-c4n[nH]c5ccc(-c6cncc(NC(=O)C7CCC7)c6)cc45)cc23)c1` [Compound 469, N-(5-(3-(4-(3-((2-(Dimethylamino)ethyl)amino)-5-fluorophenyl)-1H-indol-2-yl)-1H-indazol-5-yl)pyridin-3-yl)cyclobutanecarboxamide], the EC50 with SW480 colon cancer cells came out at 287 nM; in test [1], 189 nM; in test [2] it was 195 nM; in the test with IL-6 it was 27 nM.

On to `O=C(Nc1cncc(-c2ccc3[nH]nc(-c4cc5c(-c6ccccn6)cccc5[nH]4)c3c2)c1)C1CCCC1` [Compound 162, N-(5-(3-(4-(Pyridin-2-yl)-1H-indol-2-yl)-1H-indazol-5-yl)pyridin-3-yl) cyclopentanecarboxamide], for which the concentration for a half-maximal effect (EC50) turned out to be 1740 nM with SW480 colon cancer cells, 266 nM in test [1], 360 nM in test [2] and 314 nM in the test with IL-6.

As for `Fc1ccccc1-c1cccc2[nH]c(-c3n[nH]c4ccc(-c5ccccn5)cc34)cc12` [Compound 84, 3-(4-(2-Fluorophenyl)-1H-indol-2-yl)-5-(pyridin-2-yl)-1H-indazole], the EC50 in the test with SW480 colon cancer cells was found to be 4200 nM; in test [1], 6740 nM; in test [2], 2880 nM; in the test on IL-6 it was 2380 nM.

On to `Fc1ccccc1-c1cccc2[nH]c(-c3n[nH]c4ccc(-c5cncc(CN6CCCCC6)c5)cc34)cc12` [Compound 71, 3-(4-(2-Fluorophenyl)-1H-indol-2-yl)-5-(5-(piperidin-1-ylmethyl)pyridin-3-yl)-1H-indazole], for which the EC50 was 2170 nM in the test with SW480 colon cancer cells, 2550 nM in test [1], 1160 nM in test [2] and 3110 nM with IL-6.

As to `CN1CCN(c2cccc3[nH]c(-c4n[nH]c5ccc(-c6cncc(CN7CCC(F)(F)C7)c6)cc45)cc23)CC1` [Compound 250, 5-(5-((3,3-Difluoropyrrolidin-1-yl)methyl)pyridin-3-yl)-3-(4-(4-methylpiperazin-1-yl)-1H-indol-2-yl)-1H-indazole], the EC50 in the test with SW480 colon cancer cells amounted to 743 nM; in test [1] it was 364 nM; in test [2], 291 nM; in the test with IL-6, 99 nM.

`CC(C)CC(=O)Nc1cncc(-c2ccc3[nH]nc(-c4cc5c(-c6ccncc6)cccc5[nH]4)c3c2)c1` [Compound 114, 3-Methyl-N-(5-(3-(4-(pyridin-4-yl)-1H-indol-2-yl)-1H-indazol-5-yl)pyridin-3-yl)butanamide]: the EC50 in the test with SW480 colon cancer cells is 1630 nM; in test [1] it was 331 nM; in test [2] it was 450 nM; in the test on IL-6, 306 nM.

For `CN(C)CCNc1cc(F)cc(-c2cccc3[nH]c(-c4n[nH]c5ccc(-c6cncc(NC(=O)c7ccccc7)c6)cc45)cc23)c1` [Compound 459, N-(5-(3-(4-(3-((2-(Dimethylamino)ethyl)amino)-5-fluorophenyl)-1H-indol-2-yl)-1H-indazol-5-yl)pyridin-3-yl)benzamide], the EC50 with SW480 colon cancer cells came to 212 nM; in test [1] it was 77 nM; in test [2], 67 nM; in the test with IL-6, 109 nM.

Turning to `Cc1ccncc1-c1ccc2[nH]nc(-c3cc4c(-c5cccc(F)c5)cccc4[nH]3)c2c1` [Compound 5, 3-(4-(3-Fluorophenyl)-1H-indol-2-yl)-5-(4-methylpyridin-3-yl)-1H-indazole], the EC50 was found to be 563 nM in the test on SW480 colon cancer cells, 737 nM in test [1], 300 nM in test [2] and 834 nM in the test with IL-6.

Turning to `CCC(=O)Nc1cncc(-c2ccc3[nH]nc(-c4cc5c(-c6cc(F)cc(CNS(C)(=O)=O)c6)cccc5[nH]4)c3c2)c1` [Compound 477, N-(5-(3-(4-(3-Fluoro-5-(methylsulfonamidomethyl)phenyl)-1H-indol-2-yl)-1H-indazol-5-yl)pyridin-3-yl)propionamide], the EC50 in the test on SW480 colon cancer cells came out at 817 nM; in test [1], 224 nM; in test [2] it was 135 nM; in the test with IL-6, 595 nM.

Turning to `O=C(Cc1ccccc1)Nc1cncc(-c2ccc3[nH]nc(-c4cc5c(N6CCCCC6)cccc5[nH]4)c3c2)c1` [Compound 178, 2-Phenyl-N-(5-(3-(4-(piperidin-1-yl)-1H-indol-2-yl)-1H-indazol-5-yl)pyridin-3-yl)acetamide], the EC50 was 3720 nM in the test on SW480 colon cancer cells, 989 nM in test [1], 811 nM in test [2] and 1290 nM in the test on IL-6.

Consider `CN(C)c1cncc(-c2ccc3[nH]nc(-c4cc5c(-c6ccoc6)cccc5[nH]4)c3c2)c1` [Compound 315, 5-(3-(4-(Furan-3-yl)-1H-indol-2-yl)-1H-indazol-5-yl)-N,N-dimethylpyridin-3-amine], for which the EC50 with SW480 colon cancer cells came out at 633 nM; in test [1], 4270 nM; in test [2], 450 nM; in the test on IL-6, 200 nM.

For the compound `CC(C)CC(=O)Nc1cncc(-c2ccc3[nH]nc(-c4cc5c(-c6cc(F)cc(NCCN(C)C)c6)cccc5[nH]4)c3c2)c1` [Compound 450, N-(5-(3-(4-(3-((2-(Dimethylamino)ethyl)amino)-5-fluorophenyl)-1H-indol-2-yl)-1H-indazol-5-yl)pyridin-3-yl)-3-methylbutanamide], the EC50 turned out to be 303 nM in the test on SW480 colon cancer cells, 191 nM in test [1], 137 nM in test [2] and 1290 nM in the test with IL-6.

`CN(C)CCNc1cc(F)cc(-c2cccc3[nH]c(-c4n[nH]c5ccc(-c6cncc(NC(=O)C7CCCC7)c6)cc45)cc23)c1` [Compound 470, N-(5-(3-(4-(3-((2-(Dimethylamino)ethyl)amino)-5-fluorophenyl)-1H-indol-2-yl)-1H-indazol-5-yl)pyridin-3-yl)cyclopentanecarboxamide]: the EC50 was 166 nM in the test on SW480 colon cancer cells, greater than 10000 nM in test [1], 40 nM in test [2] and 54 nM with IL-6.

Take `O=C(Nc1cncc(-c2ccc3[nH]nc(-c4cc5c(-c6cccnc6)cccc5[nH]4)c3c2)c1)C1CCC1` [Compound 105, N-(5-(3-(4-(Pyridin-3-yl)-1H-indol-2-yl)-1H-indazol-5-yl)pyridin-3-yl) cyclobutanecarboxamide]: the EC50 turned out to be 597 nM with SW480 colon cancer cells, 144 nM in test [1], 110 nM in test [2] and 174 nM in the test on IL-6.

Turning to `CCNCc1cncc(-c2ccc3[nH]nc(-c4cc5ncccc5[nH]4)c3c2)c1` [Compound 510, N-((5-(3-(1H-pyrrolo[3,2-b]pyridin-2-yl)-1H-indazol-5-yl)pyridin-3-yl)methyl)ethanamine], the EC50 in the test with SW480 colon cancer cells amounted to 345 nM; in test [1] it was 1590 nM; in test [2] it was 464 nM; with IL-6 it was 98 nM.

As for `CC(C)Nc1cncc(-c2ccc3[nH]nc(-c4cc5c(-c6cccnc6)cccc5[nH]4)c3c2)c1` [Compound 96, N-Isopropyl-5-(3-(4-(pyridin-3-yl)-1H-indol-2-yl)-1H-indazol-5-yl)pyridin-3-amine], the EC50 with SW480 colon cancer cells came to 1140 nM; in test [1], 162 nM; in test [2] it was 100 nM; with IL-6, 163 nM.
